Experimental data from patent publication US4229435A, “Preparation of blood fraction” (priority 1978, dated 1980).

Tests used:
F X = molecular target: T1, F X (Homo sapiens, UniProt P00742); test: Coagulation factor X activity in plasma after reducing agent + iodoacetic acid; format: biochemical; settings: 5 min 37° C., then iodoacetic acid
T1 construct: from tissue; host or cells: human citrated blood plasma
Protocol: (§1) Human blood with anti-coagulating agent (9 parts blood+1 part 3.8% trisodium citrate) is centrifuged and the following tests with plasma were carried out:
(§2) The plasma is divided into 8 ml portions, which are preheated at 37° C. for 5 min. DTT is added in different concentrations, see table 1 below, and is incubated for 5 min. at 37° C. Then iodoacetic acid, 3 mol per mol DTT, is added, and incubation takes place for 15 min. at 37° C. The plasma samples are distributed in portions of about 0.2 ml and are immediately frozen at -70° C. Testing of different coagulation factors is made in known manner.
(§3) The plasma is divided into 8 ml portions, which are preheated at 37° C. for 5 min. DTE is added in different concentrations (see table 2), and is incubated for 5 minutes at 37° C. Then, iodoacetic acid (3 mol per mol DTE) is added and incubation is carried out for 15 minutes at 37° C. The plasma samples are distributed in portions of about 0.2 ml and are immediately frozen at -70° C. Testing of different coagulation factors is made in a manner known per se.
(§4) The plasma is divided into 8 ml portions, which are preheated at 37° C. for 5 minutes. Lipoic acid is added in different concentrations (see table 3), and is incubated for 5 minutes at 37° C. Then, iodoacetic acid (3 mol per mol lipoic acid) is added and incubation is carried out for 15 minutes at 37° C. The plasma samples are distributed in portions of about 0.2 ml and are immediately frozen at -70° C. Testing of different coagulation factors is made in a manner known per se.
(§5) The plasma is divided into 8 ml portions, which are preheated at 37° C. for 5 minutes. Mercaptoethanol is added in different concentrations (see table 4), and is incubated for 5 minutes at 37° C. Then, iodoacetic acid (3 mol per mol mercaptoethanol) is added and incubation is carried out for 15 minutes at 37° C. The plasma samples are distributed in portions of about 0.2 ml and are immediately frozen at -70° C. Testing of different coagulation factors is made in a manner known per se.
(§6) The plasma is divided into 8 ml portions, which are preheated at 37° C. for 5 minutes. Potassium borohydride is added in different concentrations (see table 5, and is incubated for 5 minutes at 37° C. Then, iodoacetic acid (3 mol per mol potassium borohydride) is added and incubation is carried out for 15 minutes at 37° C. The plasma samples are distributed in portions of about 0.2 ml and are immediately frozen at -70° C. Testing of different coagulation factors is made in a manner known per se.

F VIII = molecular target: T2, F VIII (Homo sapiens, UniProt P00451); test: Coagulation factor VIII activity in plasma after reducing agent + iodoacetic acid; format: biochemical; settings: 5 min 37° C., then iodoacetic acid
T2 construct: from tissue; host or cells: human citrated blood plasma
T2 sequence (P00451 20-1332 limits assumed): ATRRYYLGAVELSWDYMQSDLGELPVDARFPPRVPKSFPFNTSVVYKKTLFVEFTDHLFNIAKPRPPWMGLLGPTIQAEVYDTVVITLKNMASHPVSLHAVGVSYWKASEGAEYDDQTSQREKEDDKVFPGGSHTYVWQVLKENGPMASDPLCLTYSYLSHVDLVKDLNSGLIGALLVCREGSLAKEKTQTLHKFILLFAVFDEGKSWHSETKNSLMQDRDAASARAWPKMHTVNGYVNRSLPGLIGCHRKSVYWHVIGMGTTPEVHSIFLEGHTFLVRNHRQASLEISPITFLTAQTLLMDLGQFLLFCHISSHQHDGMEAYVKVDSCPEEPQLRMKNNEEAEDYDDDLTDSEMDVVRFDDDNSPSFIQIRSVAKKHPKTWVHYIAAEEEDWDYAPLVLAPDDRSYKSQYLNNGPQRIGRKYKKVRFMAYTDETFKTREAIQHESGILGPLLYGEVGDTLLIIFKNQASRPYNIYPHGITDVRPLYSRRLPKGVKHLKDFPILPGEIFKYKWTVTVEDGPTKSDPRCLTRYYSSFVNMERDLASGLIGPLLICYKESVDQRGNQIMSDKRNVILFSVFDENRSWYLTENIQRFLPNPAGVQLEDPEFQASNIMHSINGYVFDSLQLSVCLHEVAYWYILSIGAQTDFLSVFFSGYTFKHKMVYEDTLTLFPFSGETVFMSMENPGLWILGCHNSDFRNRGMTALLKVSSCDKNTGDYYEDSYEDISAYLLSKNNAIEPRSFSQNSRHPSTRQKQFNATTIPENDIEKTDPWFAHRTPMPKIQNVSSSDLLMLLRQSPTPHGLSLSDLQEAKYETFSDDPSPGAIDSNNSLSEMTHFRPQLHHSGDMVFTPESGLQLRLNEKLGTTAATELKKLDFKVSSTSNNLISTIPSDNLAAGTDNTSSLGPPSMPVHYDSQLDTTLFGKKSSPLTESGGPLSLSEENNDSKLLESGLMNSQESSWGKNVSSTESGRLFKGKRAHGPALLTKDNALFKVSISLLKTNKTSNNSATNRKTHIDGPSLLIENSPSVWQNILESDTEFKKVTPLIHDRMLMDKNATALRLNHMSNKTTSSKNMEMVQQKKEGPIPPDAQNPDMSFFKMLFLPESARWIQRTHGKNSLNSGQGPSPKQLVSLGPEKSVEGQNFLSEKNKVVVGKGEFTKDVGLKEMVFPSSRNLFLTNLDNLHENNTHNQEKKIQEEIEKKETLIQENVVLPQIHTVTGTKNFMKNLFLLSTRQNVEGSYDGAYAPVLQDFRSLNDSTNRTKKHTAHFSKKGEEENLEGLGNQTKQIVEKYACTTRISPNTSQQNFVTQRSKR
T2 sequence (P00451 1668-2351 limits assumed): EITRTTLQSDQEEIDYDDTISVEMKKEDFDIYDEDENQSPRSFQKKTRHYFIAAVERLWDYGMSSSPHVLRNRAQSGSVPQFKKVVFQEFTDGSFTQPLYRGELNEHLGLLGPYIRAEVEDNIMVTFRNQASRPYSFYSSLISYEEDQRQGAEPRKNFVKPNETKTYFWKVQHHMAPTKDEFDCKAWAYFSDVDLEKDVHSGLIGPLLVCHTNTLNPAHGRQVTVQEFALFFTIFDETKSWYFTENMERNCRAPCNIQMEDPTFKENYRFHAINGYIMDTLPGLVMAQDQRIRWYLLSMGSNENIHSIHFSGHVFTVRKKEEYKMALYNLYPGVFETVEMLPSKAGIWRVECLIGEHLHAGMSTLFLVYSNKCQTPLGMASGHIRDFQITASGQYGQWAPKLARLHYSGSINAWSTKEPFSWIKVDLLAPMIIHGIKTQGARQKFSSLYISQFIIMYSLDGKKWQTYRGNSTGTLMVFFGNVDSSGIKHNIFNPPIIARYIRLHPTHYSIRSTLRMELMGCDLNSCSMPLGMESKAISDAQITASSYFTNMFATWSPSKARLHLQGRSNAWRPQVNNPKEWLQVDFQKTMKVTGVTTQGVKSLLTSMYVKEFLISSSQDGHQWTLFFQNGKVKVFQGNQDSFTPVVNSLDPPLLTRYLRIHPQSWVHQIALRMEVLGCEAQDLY
Protocol: as §1, §2, §3, §4, §5, §6

[1] = human, 0.1 mg reducing agent/ml plasma (sample C)
[2] = human, 0.6 mg reducing agent/ml plasma
[3] = human, Table 1 sample D, 0.1 mg DTT/ml plasma
[4] = plasma + 0.14 mg reducing agent
[5] = plasma + 0.28 mg reducing agent

T1 sequence (P00742 235-488 limits assumed): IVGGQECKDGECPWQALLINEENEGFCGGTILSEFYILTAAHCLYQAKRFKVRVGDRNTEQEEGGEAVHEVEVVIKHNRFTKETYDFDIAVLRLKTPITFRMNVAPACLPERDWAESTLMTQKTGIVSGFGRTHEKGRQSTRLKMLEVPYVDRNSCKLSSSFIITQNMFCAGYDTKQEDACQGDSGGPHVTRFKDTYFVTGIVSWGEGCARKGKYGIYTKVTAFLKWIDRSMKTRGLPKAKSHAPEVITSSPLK
T1 sequence (P00742 41-179 limits assumed): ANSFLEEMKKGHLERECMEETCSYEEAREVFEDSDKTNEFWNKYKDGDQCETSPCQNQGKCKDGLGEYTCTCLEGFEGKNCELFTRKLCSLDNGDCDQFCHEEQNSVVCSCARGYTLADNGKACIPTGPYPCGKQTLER

Structure (SMILES)	activity at 100 µg/mL (F X; [1]) [%]	activity at 600 µg/mL (F X; [2]) [%]	activity at 100 µg/mL (F X; [3]) [%]	Coagulation factor F X (F X; plasma + 0.4 mg reducing agent)	activity at 100 µg/mL (F VIII; [1]) [%]	activity at 600 µg/mL (F VIII; [2]) [%]	activity at 100 µg/mL (F VIII; [3]) [%]	Coagulation factor F VIII (F VIII; plasma + 0.4 mg reducing agent)	Coagulation factor F X (F X; plasma + 0.2 mg reducing agent)	Coagulation factor F VIII (F VIII; plasma + 0.2 mg reducing agent)	Coagulation factor F X (F X; [4])	Coagulation factor F X (F X; [5])	Coagulation factor F VIII (F VIII; [4])	Coagulation factor F VIII (F VIII; [5])
O[C@H](CS)[C@H](O)CS [DTT, dithiothreitol]	59	0	6	0 % of control	107	27	86	52 % of control						
O=C(O)CCCCC1CCSS1 (stereo not shown) [lipoic acid]	40			32 % of control	111			111 % of control	26 % of control	98 % of control				
[BH4-].[K+] [KBH4, potassium borohydride]											86 % of control	68 % of control	122 % of control	105 % of control
O[C@H](CS)[C@@H](O)CS [DTE, dithioerythritol]	56			2 % of control	108			93 % of control	11 % of control	116 % of control				
OCCS [mercaptoethanol]				37 % of control				85 % of control	75 % of control	98 % of control				
